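How tested: cells in 96-well plates exposed to compound for 48 hours at five concentrations. TGI: concentration producing complete growth inhibition.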
Columns and labels:
Assay in all cases: NCI anticancer screen, dose series, 48 h
[1] = system: 786-0 renal
[2] = system: A498 renal
[3] = system: A549 NSCLC
[4] = system: ACHN renal
[5] = system: CAKI-1 renal
[6] = system: COLO 205 colon
[7] = system: DU-145 prostate
[8] = system: EKVX NSCLC
[9] = system: HCC-2998 colon
[10] = system: HCT-116 colon
[11] = system: HCT-15 colon
[12] = system: HL-60(TB) leukemia
[13] = system: HOP-62 NSCLC
[14] = system: HOP-92 NSCLC
[15] = system: HS 578T breast
[16] = system: HT29 colon
[17] = system: IGROV1 ovarian
[18] = system: K-562 leukemia
[19] = system: KM12 colon
[20] = system: LOX IMVI melanoma
[21] = system: M14 melanoma
[22] = system: MALME-3M melanoma
[23] = system: MDA-MB-435
[24] = system: MDA-N
[25] = system: NCI-H226 lung
[26] = system: NCI-H23 lung
[27] = system: NCI-H460 lung
[28] = system: NCI-H522 lung
[29] = system: NCI/ADR-RES ovarian
[30] = system: OVCAR-3 ovarian
[31] = system: OVCAR-4 ovarian
[32] = system: OVCAR-5 ovarian
[33] = system: OVCAR-8 ovarian
[34] = system: PC-3 prostate
[35] = system: RPMI-8226 leukemia
[36] = system: SF-268 CNS
[37] = system: SF-295 CNS
[38] = system: SF-539 CNS
[39] = system: SK-MEL-2 melanoma
[40] = system: SK-MEL-28 melanoma
[41] = system: SK-MEL-5 melanoma
[42] = system: SK-OV-3 ovarian
[43] = system: SN12C renal
[44] = system: SNB-19 CNS
[45] = system: SNB-75 CNS
[46] = system: SR leukemia
[47] = system: SW-620 colon
[48] = system: T-47D breast
[49] = system: TK-10 renal
[50] = system: U251 CNS
[51] = system: UACC-257 melanoma
[52] = system: UACC-62 melanoma
[53] = system: CCRF-CEM leukemia
[54] = system: MCF7 breast
[55] = system: MDA-MB-231 breast
[56] = system: MOLT-4 leukemia
[57] = system: UO-31 renal

Measured: TGI

CC1(C)OP(=O)(c2ccccc2)C=C1Br (stereo unspecified)
> 100 µM: [1] | [2] | [3] | [4] | [5] | [6] | [7] | [8] | [9] | [10] | [11] | [12] | [13] | [14] | [15] | [16] | [17] | [18] | [19] | [20] | [21] | [22] | [23] | [24] | [25] | [26] | [27] | [28] | [29] | [30] | [31] | [32] | [33] | [34] | [35] | [36] | [37] | [38] | [39] | [40] | [41] | [42] | [43] | [44] | [45] | [46] | [47] | [48] | [49] | [50] | [51] | [52]

CC1(C)CC(=O)c2c(nc3c(ccc4ccccc43)c2-c2ccc(NC(=O)CCCCCCCCC(=O)Nc3ccc(-c4c5c(nc6c4ccc4ccccc46)CC(C)(C)CC5=O)cc3)cc2)C1
> 100 µM: [1] | [3] | [4] | [5] | [53] | [6] | [7] | [8] | [10] | [12] | [13] | [15] | [16] | [17] | [18] | [19] | [20] | [21] | [54] | [55] | [23] | [24] | [56] | [25] | [27] | [28] | [29] | [30] | [32] | [33] | [34] | [35] | [36] | [37] | [38] | [39] | [40] | [41] | [42] | [43] | [44] | [45] | [46] | [47] | [48] | [49] | [50] | [51] | [57]

From PubChem BioAssay (NCI)
